In patent US8372808B2, “Suppression of glial fibrillary acidic protein” (Wisconsin Alumni Research Foundation, priority 2008, dated 2013):
Structures can show the parent of a compound that is named as a salt. Where two headings read alike, the source gives them in different places.

Columns and labels:
[1] = system: 2.2 kb human GFAP promoter; assay: hGFAP promoter luciferase activity assay in 172.9 cells (primary astrocytes from dual luciferase transgenic mice); format: cell-based; details: for suppression in the promoter assay: secondary screen, 10 μM, 48 hours; for % GFAP reductions, luciferace expression from hGFAP promoter: tertiary screen, 48 hr exposure, at the MTDcc
Description: Cell-based assays were performed as four different screens using enriched cortical primary astrocyte cultures developed from transgenic mice expressing both firefly and Renilla luciferase reporter genes were generated. Briefly, the'firefly luciferase was placed under the control of a 2.2 kb human GFAP promoter to monitor GFAP transcription, and the Renilla luciferase was placed under the control of a 0.5 kb human GAPDH (glyceraldehyde 3-phosphate dehydrogenase) promoter to monitor transcription of a housekeeping gene for signal normalization. See section B, below for more detail regarding the development of transgenic mouse strains. Cells used in the following examples (e.g., the cortical primary astrocyte cells termed “172.9 cells,” described below) were developed from the transgenic mice described in section B.
Briefly, the cortices from individual pups were freed of meninges and placed into DMEM (Gibco) without serum, mechanically disassociated into single cells, suspended in medium containing DMEM supplemented with 10% fetal bovine serum (FBS; Hyclone), 100 U/ml penicillin, 100 μg/ml streptomycin (Gibco), seeded into T25 flasks (one brain per flask), and maintained in a humidified 5% CO2 atmosphere at 37° C. […] Medium was changed every 3 days. At 14-16 days in vitro (DIV), the flasks were shaken overnight at 200 rpm to remove oligodendrocytes and microglia. […] The cells were then suspended in DMEM with 10% FBS and plated (“passage 2”) on either 35 mm dishes, […], or 96-well plates (Corning) as needed. Cells were grown for varying days in vitro (DIV) at passage 2 and then used for various experiments. Tissue culture dishes and plates were pre-coated with 100 μg/ml poly-L-lysine for 1 h in a humidified 5% CO2 atmosphere at 37° C., and then allowed to air dry. […] Cell density was measured with the Vi-CELL cell counter (Beckman Coulter) or hemocytometer by the trypan-blue exclusion method. For simplicity, cells are referred to as “172.9 cells.”
Briefly, 172.9 cells were plated on poly-L coated white 96-well plates at a density of 5000 cells per well, in 100 μl DMEM with 10% FBS. At twenty-four hours, cells were exposed to the different compounds at a final concentration of 10 μM (diluted from a 50 mM stock) prepared in new medium (DMEM with 10% FBS). […] After exposure to compounds, luciferase activity in the primary and secondary screenings was determined by adding 30 μl of Bright-Glo™ reagent (Promega) to the 100 μl of media and cells of each well in the white 96-well plates with the Biomek® FX liquid handler (Beckman Coulter). After incubation for 1 minute at room temperature, signals were measured with the Safire 2 plate reader using Magellan™ software (Tecan). Other specific methods and equipment are known in the art and can be used to measure luciferase expression levels. This assay method is termed the “hGFAP promoter luciferase activity assay.” A reduction in luciferase expression as determined by this assay is termed “hGFAP promoter luciferase reduction.” For some assays that were aimed at confirming results of the initial screens, the same amount of Bright-Glo™ reagent was applied to each well in 96-well plates and signals were detected with the GloRunner™ Microplate Luminometer (Turner Biosystems) using the Dual-Glo® luciferase assay according to the manufacturer's recommendations (E1910, Promega).
In the secondary screen, cells were plated in a 96-well plate as described above for the primary screen.
Some compounds were unavailable outside of the library collections, and could not be further tested.
Each compound and concentration was analyzed in quadruplicate wells.
Compounds were tested at eight different concentrations ranging from 0-20 μM. In addition, GFAP protein levels were measured using a sandwich ELISA, which has greater sensitivity and is more accurate than the cell-based ELISA used in the primary screens.

mGFAP protein = assay: cell-based GFAP protein level assay (cell-based ELISA) in 172.9 cells; set-up: species or system mouse; details: for suppression in the protein assay: secondary screen, 10 μM, 48 hours; for % GFAP reductions, mGFAP protein via ELISA: tertiary screen, 48 hr exposure, at the MTDcc
172.9 cells = assay: cell viability (CellTiter-Glo) / MTDcc in 172.9 cells
Description: Criterion for acceptable viability was >70% survival.
Cell viability was determined as follows. After exposure to each compound (duplicate wells per compound), 50 μl of CellTitier-Glo Luminescent Cell Viability Assay reagent (G7571, Promega) was added to the 100 μl of media present in each well, and the luminescent signal (reflecting intracellular ATP level) was detected with either a Victor 3-V plate reader (Perkin Elmer) or GloRunner Microplate Luminometer (Turner Biosystems). Cell viability was expressed as a percent of non-treated control cells.
A dose-response curve was created for each compound (0.1, 0.5, 1, 5, 10, 15, 20 μM) using 48 hr exposures. The MTDcc (“maximum tolerated dose—cell culture”) indicates the highest concentration that retained at least 70% cell viability. Each compound and concentration was analyzed in quadruplicate wells. EGCDG: epigallocatechin 3,5-digallate; NPPB: 5-nitro-2-phenylproplyaminobenzoic acid. As used herein, MTDcc refers to the MTD as determined by this assay under the above conditions.

[2] = tertiary screen, 48 hr exposure, 0.1-20 μM, highest concentration that retained at least 70% cell viability

Row | Compound | suppression in the promoter assay [1] | % GFAP reductions, luciferace expression from hGFAP promoter [1] [%] | suppression in the protein assay (mGFAP protein) | % GFAP reductions, mGFAP protein via ELISA (mGFAP protein) [%] | MTDcc (172.9 cells; mouse, 48 h) [µM] | MTDcc (172.9 cells; [2]) [µM] | MTDcc (172.9 cells) [µM]
1 | CCOC(=O)NC1=C(N2CC2)C(=O)C(NC(=O)OCC)=C(N2CC2)C1=O [diaziquone] | significant suppression | 86 | significant suppression | 9.5 | >20 | – | –
2 | CC(=O)OCC(=O)[C@@]12OC(C)(C)O[C@@H]1C[C@H]1[C@@H]3C[C@H](F)C4=CC(=O)C=C[C@]4(C)[C@@]3(F)[C@@H](O)C[C@@]12C [fluccinonide] | – | 28 | – | −2.2 | – | >20 | –
3 | CC(C)(C)c1ccc(C(O)CCCN2CCC(C(O)(c3ccccc3)c3ccccc3)CC2)cc1 (stereo not drawn) [terfenadine] | – | 14 | – | – | 2.5 | – | –
4 | CCOC(=O)C1=C(COCCN)NC(C)=C(C(=O)OC)C1c1ccccc1Cl (stereo not drawn) [amlodipine besylate] | significant suppression | – | significant suppression | – | – | – | –
5 | CC1(C)C(=O)C=C[C@]2(C)[C@H]3CC[C@@]4(C)[C@H](c5ccoc5)OC(=O)[C@H]5O[C@]54[C@]3(C)C=C[C@@H]12 [7-desacetoxy-6,7-dehydrogedunin] | significant suppression | – | significant suppression | – | – | – | –
6 | CC/C(=C(\c1ccccc1)c1ccc(OCCN(C)C)cc1)c1ccccc1 [tamoxifen citrate] | – | 52 | – | 21.6 | 7.5 | – | –
7 | CN(CC(=O)O)C(=N)NP(=O)(O)O [phosphocreatine] | – | 13 | – | 3.8 | – | >20 | –
8 | O=c1c(-c2cc(O)c(O)c(O)c2)coc2cc(O)c(O)c(O)c12 [irigenol] | significant suppression | 28 | significant suppression | 1.8 | >20 | – | –
9 | pyrogallin | – | 22 | – | 3.3 | – | >20 | –
10 | C=C(C)[C@@H]1CC[C@]2(C(=O)O)CC[C@]3(C)[C@H](CC[C@@H]4[C@@]5(C)CC[C@H](O)C(C)(C)[C@@H]5CC[C@]43C)[C@@H]12 [betulinic acid] | – | 13 | – | 6.3 | >20 | – | –
11 | C[C@]12CC[C@@H]3c4ccc(OC(=O)c5ccccc5)cc4CC[C@H]3[C@@H]1CC[C@@H]2O [estradiol benzoate] | – | 26 | – | −2.8 | >20 | – | –
12 | C=C1CC[C@H](O)C/C1=C/C=C1\CCC[C@]2(C)[C@@H]([C@H](C)CCCC(C)C)CC[C@@H]12 [colecalciferol] | – | 24 | – | −4.9 | – | >20 | –
13 | COC(=O)[C@H](O)[C@H]1C(C)(C)[C@H](OC(C)=O)[C@@H]2CC3=C4CC(=O)O[C@@H](c5ccoc5)[C@]4(C)CC[C@@H]3[C@@]1(C)C2=O [swietenolide-3-acetate] | – | 8 | – | 0.7 | – | – | >20
14 | COc1ccc2c(c1)O[C@@H]1COc3cc(OC)c(OC)cc3[C@@H]1C2=O [mundoserone] | significant suppression | 50 | significant suppression | 1.6 | >20 | – | –
